Where two headings read alike, the source gives them in different places. Square brackets hold non-standard residues; d marks the D form. Peptide text beside a SMILES is read from it. * marks the point of attachment. Dolaproine = CO[C@@H]([C@@H]1CCCN1)[C@@H](C)C(=O)O; Dil = CC[C@H](C)[C@H](NC)[C@@H](CC(=O)O)OC; X1 = C[C@@H](N*)[C@@H](O)c1ccccc1; NMeV = CN[C@H](C(=O)O)C(C)C
How the values were obtained:
[1] = system: HEK293 (293) cells; test: In vitro cell viability (cell kill) assay, CCK8; type: cell-based, human
Source text: (§1) PRLR-overexpressing cells, including HEK293, PC3, MCF7 and NCI-N87, were generated to assess the ability of anti-PRLR conjugated antibodies to reduce cell viability. For comparative purposes, PC3 and T47D cells with overexpressed ErbB2 were also generated, as well as an MCF7 cell line over-expressing both hPRLR and hErbB2. Briefly, Lipofectamine® 2000-mediated transfection methodology was utilized to generate HEK293 cells expressing human PRLR (HEK293/hPRLR) or human ErbB2 (HEK293/hErbB2). Lipofectamine LTX with Plus Reagent was used to generate PC3 cells expressing human PRLR (PC3/hPRLR) or human ErbB2 (PC3/hErbB2). Lentiviral-mediated transduction was utilized to generate MCF7 cells expressing human PRLR (MCF7/hPRLR), NCI-N87 cells expressing human PRLR (NCI-N87/hPRLR), T47D cells over-expressing human ErbB2 (T47D/hErbB2), and MCF7 cells expressing both human PRLR and human ErbB2 (MCF7/hPRLR/hErbB2). All lines were selected for at least two weeks in complete growth media plus appropriate selection reagents. Stably expressing populations were enriched for PRLR expression via FACS using the anti PRLR antibody Control I.
(§2) Next, the ability of anti-PRLR-DM1 antibody-drug conjugates (i.e., anti-PRLR antibodies conjugated to DM1 via a non-cleavable linker [SMCC]) to reduce cell viability was determined using in vitro cell based assays. Cells were seeded in PDL-coated 96 well plates at 1500 to 10000 cells per well in complete growth media and allowed to grow overnight. For cell viability curves, ADCs or free DM1 (as the methyl disulfide derivative DM1-SMe) were added to the cells at final concentrations ranging from 500 nM to 5 pM and incubated for 3 days. The 293, PC3 and T47D cells were incubated with CCK8 (Dojindo, Rockville, Md.) for the final 1-3 hours and the absorbance at 450 nm (OD450) was determined on a Flexstation3 (Molecular Devices, Sunnyvale, Calif.). MCF7 cells were treated with Hoechst 33342 nuclear stain while being fixed with 4% formaldehyde. Images were acquired on the ImageXpress micro XL (Molecular Devices, Sunnyvale, Calif.) and nuclear counts were determined via Columbus image analysis software (Perkin Elmer, Shelton, Conn.). Background OD450 values (PC3, 293, and T47D) or nuclear counts (MCF7) from digitonin (40 nM) treated cells was subtracted from all wells and viability was expressed as a percentage of the untreated controls. IC50 values were determined from a four-parameter logistic equation over a 10-point response curve (GraphPad Prism).

[2] = system: T47D cells; test: In vitro cell viability (cell kill) assay, CCK8; type: cell-based, human; details: T47D; for IC50: read-out: IC50
Procedure: as §2

[3] = system: PC3 cells; test: In vitro cell viability (cell kill) assay, CCK8; type: cell-based, human
Source text: as §1, §2

[4] = system: PC3/hPRLR cells; test: In vitro cell viability (cell kill) assay, CCK8; type: cell-based, human; details: Table 18
Source text: as §1, §2

[5] = system: MCF7 (MCF7/ATCC) cells; test: In vitro cell viability (cell kill) assay, nuclear counts; type: cell-based, human; details: MCF7/ATCC
Source text: as §1, §2

[6] = system: MCF7/hPRLR (MCF7/PRLR) cells; test: as above; type: cell-based, human
Source text: as §1, §2

[7] = system: PRLR expressing cells; test: In vitro cell viability (cell kill) assay, several cell backgrounds; type: cell-based, human; details: PC3/hPRLR and MCF7/hPRLR cell lines
Source text: as §1, §2

[8] = system: MCF7/PRLR tumors; test: MCF7/PRLR breast cancer xenograft, tumor size and tumor growth inhibition; type: in vivo, NCr nude mice; details: MCF7/PRLR tumors TRIAL #2, NCr Nude mice, Day 63
Source text: (§3) Briefly, 20×10^6 MCF7/PRLR cells (ATCC HTB-22 transfected with full length hPRLR as previously described) were implanted subcutaneously into the left mammary fat pad of female NCr nude mice. In other studies, 10×10^6 PC3/PRLR (ATCC CRL-1435 transfected with full length hPRLR as previously described) were implanted subcutaneously into the left flank of male SCID mice. Additionally, 10×10^6 parental T47D (ATCC HTB-133) or 7.5×10^10 T47D #11 cells (ATCC HTB-133 serially passaged in vivo as described below) were subcutaneously implanted into the left flank of female CB17 SCID mice. All mice were obtained from Taconic (Hudson, N.Y.). Each bolus of cells was supplemented with a 90-day estrogen release pellet (1.7 mg/pellet; Innovative Research America, Sarasota Fla.). […] Control reagents included PBS vehicle, free methyl-disulfide DM1 (DM1-SMe) and isotype Control 1-DM1.
(§4) In multi-dose studies, mice were dosed once a week for a total of three weeks with tumor volumes and body weights being monitored twice weekly throughout the study. Test ADCs were dosed at 5 and/or 15 mg/kg in the multi-dose studies. In single-dose studies, mice received a single dose of test ADC, and tumor volumes and body weights were monitored twice weekly throughout the study. Test ADCs were dosed at 1, 2.5, 5, and 15 mg/kg in the single-dose studies. Average tumor size as well as tumor growth inhibition relative to the vehicle treated group were calculated for each group. Tumors were measured with calipers twice a week until the average size of the vehicle group reached 1000 mm^3. Tumor size was calculated using the formula (length×width^2)/2. Tumor growth inhibition was calculated according to the following formula: (1−((Tfinal−Tinitial)/(Cfinal−Cinitial)))*100, where T (treated group) and C (control group) represent the mean tumor mass on the day the vehicle group reached 1000 mm^3. […] Results are summarized in Tables 21-25 (multi-dose) and Table 26 (single dose). (NT=not tested in the particular experiment shown).

[9] = system: PC3/PRLR tumors; test: PC3/PRLR xenograft, tumor size and tumor growth inhibition; type: in vivo, SCID mice; details: PC3/PRLR tumors TRIAL #2, SCID mice, Day 55
Source text: as §3, §4

[10] = system: T47D#11 tumors; type: in vivo, CB17 SCID mice; details: for Final Tumor size mm^3 (mean ± SEM) / Average Tumor Growth Inhibition (%): T47D#11 tumors, SCID mice, Day 66; for T47D #11 tumor growth: repeat dosing 5 and 15 mg/kg
Source text: as §3, §4

## COc1cc2cc(c1Cl)N(C)C(=O)C[C@H](OC(=O)[C@H](C)N(C)C(=O)CCSSC)[C@]1(C)O[C@H]1[C@H](C)[C@@H]1C[C@@](O)(NC(=O)O1)[C@H](OC)/C=C/C=C(\C)C2 [Me-SS-May Free DM1]
[1]; HEK293, Table 13, without PRL
  % Kill: 94%
  IC50: 0.6 nM
[2]; Table 13, without PRL
  % Kill: 100%
  IC50: 0.3 nM

## CC[C@H](C)[C@@H]([C@@H](CC(=O)N1CCC[C@H]1[C@H](OC)[C@@H](C)C(=O)N[C@H](C)[C@@H](O)c1ccccc1)OC)N(C)C(=O)[C@@H](NC(=O)[C@@H](NC)C(C)C)C(C)C [Free MMAE] (H-[NMeV]V[Dil][Dolaproine]-X1)
[1]; 293, Table 19
  % Kill: 100%
  IC50: 0.9 nM
[3]; Table 18
  % Kill: 90%
  IC50: 1.4 nM
[4]
  % Kill: 77%
  IC50: 1 nM
[5]; Table 18
  % Kill: 83%
  IC50: 2.4 nM
[5]; Table 20
  % Kill: 80%
  IC50: 2.4 nM
[6]; Table 18
  % Kill: 95%
  IC50: 1.5 nM
[6]; Table 20
  % Kill: 95%
  IC50: 1.5 nM
[2]; Table 19
  % Kill: 100%
  IC50: 1 nM

## COc1cc2cc(c1Cl)N(C)C(=O)C[C@H](OC(=O)[C@H](C)N(C)C(=O)CCC(C)(C)S)[C@]1(C)O[C@H]1[C@H](C)[C@@H]1C[C@@](O)(NC(=O)O1)[C@H](OC)/C=C/C=C(\C)C2 [Free DM4]
[1]; 293, Table 19
  % Kill: 100%
  IC50: 0.6 nM
[5]; Table 20
  % Kill: 90%
  IC50: 1.3 nM
[6]; Table 20
  % Kill: 90%
  IC50: 2 nM
[2]; Table 19
  % Kill: 100%
  IC50: 0.5 nM

B1: H1H6953-mc-vc-PAB-MMAE (conjugate)
VH: EVQLLESGGGLVQPGGTLRLSCAASGFTFSAYAMSWVRQAPGKGLEWVSSINVRAGDTYYADSVKGRFTISRDNSKNTLFLLMNSLRAEDTAAYYCAKARYSSNWGFDFWGQGTLVTVSS
VL: DIVMTQSPDSLTVSLGARTTINCQSSQTILHSSNNHNYLAWYQQKPGLPPKLLIYWSSTRESGVPDRFSGSGSGTDFTLTISSLQAEDVAIYYCQQYSNTPYTFGQGTKLEIN
[7]
  cell killing, non-cleavable DM1 ADCs versus cleavable MMAE ADCs: nearly equivalent cell killing

B2: H1H6765P-DM1: anti-PRLR antibody H1H6765P conjugated to DM1 through an SMCC linker (conjugate)
VH: EVQLVESGGGVVRPGGSLRLSCVGSGFSFDDHGMNWVRQGPGKGLEWVSGFNWNGGSTNYAESVKGRFTISRDNARNSLFLQMNSLRAEDTALYYCVRGRSGWFNDAFDVWGPGTMVTVSS
VL: EIVLTQSPGTLSLSPGERATLSCRASQTINSNYLAWYRQKPGQTPRLLIYGTSSRATGIPDRFSGSGSGTDFSLTISRLEPEDFAVFYCQQYAGLPTFGPGTKVDIK
[7]
  cell killing, non-cleavable DM1 ADCs versus cleavable MMAE ADCs: nearly equivalent cell killing
[3]; Table 11, 3 days
  IC50: 200 nM
[8]; multi-dose 5 mg/kg
  Average Tumor Growth Inhibition (%): 122%
[8]; multi-dose 15 mg/kg
  Average Tumor Growth Inhibition (%): 136%
  Final Tumor size mm^3 (mean ± SEM): 0 ± 0 mm^3
[9]; multi-dose 5 mg/kg
  Final Tumor size mm^3 (mean ± SEM): 489 ± 70 mm^3
[9]; multi-dose 15 mg/kg
  Average Tumor Growth Inhibition (%): 98%
  Final Tumor size mm^3 (mean ± SEM): 181 ± 42 mm^3
[10]; multi-dose 5 mg/kg
  Final Tumor size mm^3 (mean ± SEM): 183 ± 28 mm^3
[10]; multi-dose 15 mg/kg
  Average Tumor Growth Inhibition (%): 111%
  Final Tumor size mm^3 (mean ± SEM): 69 ± 12 mm^3
[10]
  T47D #11 tumor growth: potently inhibited tumor growth

B3: H1H6765-mc-VC-PAB-MMAE (conjugate)
VH: B2 VH
VL: B2 VL
[7]
  cell killing, non-cleavable DM1 ADCs versus cleavable MMAE ADCs: nearly equivalent cell killing

B4: H1H6782P-DM1: anti-PRLR antibody H1H6782P conjugated to DM1 through an SMCC linker (conjugate)
VH: EVQLVESGGGLVQPGRSLRLSCAASGFTFDDYAMHWVRQAPGKGLEWVSGIIWNSGHIGYGDSVKGRFTISRDNAKKSLYLQMNSLRAEDTALYYCARDSGRYQSYFDYWGQGTLVTVSS
VL: DIQMTQSPSTLSASVGDRVTITCRASHIISSWLAWYQQKPGKAPKVLIFKASSLESGVPSRFSGSGSGTEFTLTISSLQPDDFATYYCQQYNTYSRTFGQGTKVEIK
[1]; 293, Table 11, 3 days
  % Kill: 86%
[3]; Table 11, 3 days
  % Kill: 67%
[8]; multi-dose 5 mg/kg
  Average Tumor Growth Inhibition (%): 123%
[8]; multi-dose 15 mg/kg
  Average Tumor Growth Inhibition (%): 137%
[9]; multi-dose 5 mg/kg
  Average Tumor Growth Inhibition (%): 69%
  Final Tumor size mm^3 (mean ± SEM): 490 ± 63 mm^3
[9]; multi-dose 15 mg/kg
  Final Tumor size mm^3 (mean ± SEM): 321 ± 33 mm^3
[10]; multi-dose 5 mg/kg
  Final Tumor size mm^3 (mean ± SEM): 293 ± 20 mm^3
[10]; multi-dose 15 mg/kg
  Average Tumor Growth Inhibition (%): 106%
  Final Tumor size mm^3 (mean ± SEM): 124 ± 36 mm^3
[10]
  T47D #11 tumor growth: potently inhibited tumor growth

B5: H1H6958N2-mc-VC-PAB-MMAE (conjugate)
VH: QVQLVESGGGVVQPGRSLRLSCGASGFTFRNYGMQWVRQGPGKGLEWVTLISFDGNDKYYADSVKGRFTISRDNSKNTLFLQMNSLRTEDTAVYYCARGGDFDYWGQGTLVTVSS
VL: DIQMTQSPSSLSASVGDRVTITCRASQDIRKDLGWYQQKPGKAPKRLIYAASSLHSGVPSRFSGSGSGTEFTLTISSLQPEDFATYYCLQHNSYPMYTFGQGTKLEIK
[7]
  cell killing, non-cleavable DM1 ADCs versus cleavable MMAE ADCs: nearly equivalent cell killing
[3]; Table 18
  % Kill: 39%
